Marks after values point to notes of the source that are not given here.
What was measured:
[1] = system: viral reverse transcriptase; details: cited from earlier work
[2] = system: cellular DNA polymerase beta; details: cited from earlier work
[3] = system: cellular DNA polymerase gamma; details: cited from earlier work
[4] = system: mammalian DNA polymerase alpha; details: cited from earlier work
Semliki Forest Virus = experiment: Antiviral activity against Semliki Forest Virus; assay type: cell-based; details: Vero cell cultures, read-out: Minimal Inhibitory Concentration (required to reduce virus-induced cytopathogenicity by 50%)
Description: (§1) The antiviral activity of the dideoxynucleosides of the present invention against a variety of viruses were compared. The results, shown in Table 3, indicate that the compositions of the present invention are selectively effective against HIV virus.
(§2) ^1 Required to reduce virusinduced cytopathogenicity by 50%.
(§3) ^4 Antiviral activity measured in Vero cell cultures.

Coxsackie Virus B4 = experiment: Antiviral activity against Coxsackie Virus B4; assay type: cell-based; details: Enterovirus B, Hela cell cultures, read-out: Minimal Inhibitory Concentration (required to reduce virus-induced cytopathogenicity by 50%)
[5] = system: PBM (peripheral blood mononuclear cells) stimulated with pokeweed mitogen; experiment: Immune reactivity of normal lymphocytes: PBM + PWM; assay type: cell-based; details: 72 hours
[6] = system: normal helper/inducer TM3 cells; experiment: Immune reactivity of normal lymphocytes: tetanus toxoid-driven activation of clone TM3; assay type: cell-based; details: 72 hours
Method: There was tested the effects of the various 2',3'-dideoxynucleosides on the antigen-specific and lectin-induced reactivity of normal lymphocytes in vitro (Table 2). There was used a normal clone (TM3)of tetanus-toxoid specific helper/inducer T-cells to monitor the effects of the compounds on antigen-driven activation and normal circulating lymphocytes to monitor effects on pokeweed mitogen and phytohaemagglutinin-driven activation. Concentrations of these compounds, including those that were 10- to 20-fold higher than those necessary to block the in vitro infectivity and cytopathic effect of HIV (HTLV-III/LAV) left the in vitro immune reactivity of normal lymphocytes basically intact.
^2 5 × 10^4 normal helper/inducer TM3 cells were stimulated
with tetanus toxoid (0.6 limiting flocculation units/ml) plus 10^5
irradiated (4,000 rad) autologous peripheral blood mononuclear cells (PBM
as a source of accessory cells and cultured for 72 hours in the presence
or absence of the 2',3dideoxynucleoside. After exposure to 0.5 uCi^3
Hthymidine or 1 uCi ^3 Huidine for the final 5 hours, cells were
harvested onto glass fibers and the incorporated radioactivity was
counted. Data are expressed as the arithmetic mean counts per minute
(×10^3) ± 1 standard deviation triplicate determinations.

HSV-1 [7] = experiment: Antiviral activity against HSV-1 (second line); assay type: cell-based; details: Human alphaherpesvirus 1; primary rabbit kidney cell cultures; second HSV-1 line; read-out: Minimal Inhibitory Concentration (required to reduce virus-induced cytopathogenicity by 50%)
DNA and RNA viruses = experiment: Antiviral activity against a variety of viruses (Table 3 overall); assay type: cell-based; details: Table 3 note
Description: as §1, §2

[8] = system: HIV (HTLV-III/LAV), ATH8 cells; experiment: Inhibition of cytopathic effect of HIV (HTLV-III/LAV) against ATH8 cells; assay type: cell-based, human immunodeficiency virus (HIV)
HTLV-III = experiment: Antiviral activity against HTLV-III; assay type: cell-based, human immunodeficiency virus (HIV); details: for IC50: Human immunodeficiency virus 1, ATH-8, T4+ human T cell (ATH8) cultures, read-out: Minimal Inhibitory Concentration (required to reduce virus-induced cytopathogenicity by 50%); for activity against HIV: Table 3 note
Description: as §1, §2
^5 Antiviral activity measured in T4+ human T cell (ATH8) cultures.

[9] = system: Vesicular Stomatitis Virus; experiment: microbe, parasite or virus in culture; assay type: cell-based; details: HeLa, read-out: Minimal Inhibitory Concentration (required to reduce virus-induced cytopathogenicity by 50%)
Sindbis Virus = experiment: Antiviral activity against Sindbis Virus; assay type: cell-based; details: Vero cell cultures, read-out: Minimal Inhibitory Concentration (required to reduce virus-induced cytopathogenicity by 50%)
Description: as §1, §2, §3

[10] = dog, in vivo
Reovirus-1 = experiment: Antiviral activity against Reovirus-1; assay type: cell-based; details: Vero cell cultures; read-out: Minimal Inhibitory Concentration (required to reduce virus-induced cytopathogenicity by 50%)
Polio Virus-1 = experiment: organism not typed; assay type: cell-based; details: HeLa, read-out: Minimal Inhibitory Concentration (required to reduce virus-induced cytopathogenicity by 50%)
Parainfluenza Virus-3 = experiment: Antiviral activity against Parainfluenza Virus-3; assay type: cell-based; details: Vero; read-out: Minimal Inhibitory Concentration (required to reduce virus-induced cytopathogenicity by 50%)
HSV-1 [11] = experiment: Antiviral activity against HSV-1 (first line); assay type: cell-based; details: Human alphaherpesvirus 1; primary rabbit kidney cell cultures; first HSV-1 line; read-out: Minimal Inhibitory Concentration (required to reduce virus-induced cytopathogenicity by 50%)
Vaccinia = experiment: microbe, parasite or virus in culture; assay type: cell-based; details: Orthopoxvirus vaccinia, in Oryctolagus cuniculus, read-out: Minimal Inhibitory Concentration (required to reduce virus-induced cytopathogenicity by 50%)
[12] = system: PBM (peripheral blood mononuclear cells) stimulated with phytohaemagglutinin; experiment: Immune reactivity of normal lymphocytes: PBM + PHA; assay type: cell-based; details: 72 hours
[13] = system: HIV (HTLV-III/LAV) p24 gag protein, H9 cells; experiment: Inhibition of infectivity and replication of HIV (p24 gag protein expression) in H9 cells; assay type: cell-based, human immunodeficiency virus (HIV)
[14] = 10 uM, 3H-thymidine incorporation, mean ± 1 SD, triplicate
[15] = 100 uM, 3H-thymidine incorporation, mean ± 1 SD, triplicate
[16] = 1 uM, 3H-uridine incorporation, mean ± 1 SD, triplicate
[17] = 10 uM, 3H-uridine incorporation, mean ± 1 SD, triplicate
[18] = 200 uM, 3H-uridine incorporation
[19] = 2,000 uM, 3H-uridine incorporation, mean ± 1 SD, triplicate

Structure (SMILES)	IC50 (Semliki Forest Virus) [µM]	IC50 (Coxsackie Virus B4) [µM]	activation of PBM + PWM, mean counts per minute [5, 14]	activation of PBM + PWM, mean counts per minute [5, 15]	activation of clone TM3, mean counts per minute [6, 14]	activation of clone TM3, mean counts per minute [6, 15]	IC50 (HSV-1 [7]) [µM]	IC50 (HTLV-III) [µM]	IC50 [9] [µM]	IC50 (Sindbis Virus) [µM]	IC50 (Reovirus-1) [µM]	IC50 (Polio Virus-1) [µM]	IC50 (Parainfluenza Virus-3) [µM]	IC50 (HSV-1 [11]) [µM]	IC50 (Vaccinia) [µM]	activation of PBM + PHA, mean counts per minute [12, 14]	activation of PBM + PHA, mean counts per minute [12, 15]	also measured
Nc1ncnc2c1ncn2[C@H]1CC[C@@H](COP(=O)(O)OP(=O)(O)OP(=O)(O)O)O1																		inhibition of viral reverse transcriptase [1]: can inhibit; inhibition of cellular DNA polymerase beta [2]: can inhibit; inhibition of cellular DNA polymerase gamma [3]: can inhibit; inhibition of mammalian DNA polymerase alpha [4]: but not mammalian DNA polymerase alpha
Nc1nc2c(ncn2[C@H]2CC[C@@H](COP(=O)(O)OP(=O)(O)OP(=O)(O)O)O2)c(=O)[nH]1																		inhibition of viral reverse transcriptase [1]: can inhibit; inhibition of cellular DNA polymerase beta [2]: can inhibit; inhibition of cellular DNA polymerase gamma [3]: can inhibit; inhibition of mammalian DNA polymerase alpha [4]: but not mammalian DNA polymerase alpha
Nc1ncnc2c1ncn2[C@H]1CC[C@@H](CO)O1 [2',3'-dideoxyadenosine]	> 2000	> 2000	63 ± 5 counts per minute (×10^3)	57 ± 3 counts per minute (×10^3)	86 ± 8 counts per minute (×10^3)	67 ± 2 counts per minute (×10^3)	> 2000	5	> 2000	> 2000	> 2000	> 2000	> 2000	> 2000	> 2000	289 ± 18 counts per minute (×10^3)	314 ± 37 counts per minute (×10^3)	activity against the broad spectrum of DNA and RNA viruses (DNA and RNA viruses): not active; anti-retroviral activity against HIV [8]: have anti-retroviral activity against HIV; activity against HIV (HTLV-III): active against HIV; oral bioavailability ([10]; pH 7): 41.6%; conversion of orally administered ddA to ddI ([10]; po): converted almost entirely to 2',3'-dideoxyinosine (ddI)
Nc1ccn([C@H]2CC[C@@H](CO)O2)c(=O)n1 [2',3'-dideoxycytidine]	> 2000	> 2000					> 2000	0.3	> 2000	> 2000	> 2000	> 2000	> 2000	> 2000	> 2000			activation of PBM + PWM, mean counts per minute [5, 16]: 23 ± 3 counts per minute (×10^3); activation of PBM + PWM, mean counts per minute [5, 17]: 15 ± 3 counts per minute (×10^3); activation of clone TM3, mean counts per minute [6, 16]: 13 ± 1 counts per minute (×10^3); activation of clone TM3, mean counts per minute [6, 17]: 8 ± 1 counts per minute (×10^3); activity against the broad spectrum of DNA and RNA viruses (DNA and RNA viruses): not active; activity against HIV (HTLV-III): active against HIV; activation of PBM + PHA, mean counts per minute [12, 16]: 101 ± 1 counts per minute (×10^3); activation of PBM + PHA, mean counts per minute [12, 17]: 86 ± 3 counts per minute (×10^3)
Nc1nc2c(ncn2[C@H]2CC[C@@H](CO)O2)c(=O)[nH]1 [2',3'-dideoxyguanosine]			73 ± 8 counts per minute (×10^3)	62 ± 5 counts per minute (×10^3)	66 ± 5 counts per minute (×10^3)	77 ± 1 counts per minute (×10^3)										350 ± 4 counts per minute (×10^3)	469 ± 9 counts per minute (×10^3)	
OC[C@@H]1CC[C@H](n2cnc3c(O)ncnc32)O1 [2',3'-dideoxyinosine]			61 ± 1 counts per minute (×10^3)	62 ± 5 counts per minute (×10^3)	62 ± 4 counts per minute (×10^3)	81 ± 4 counts per minute (×10^3)										298 ± 20 counts per minute (×10^3)	355 ± 37 counts per minute (×10^3)	anti-retroviral activity against HIV [8]: have anti-retroviral activity against HIV
Cc1cn([C@H]2CC[C@@H](CO)O2)c(=O)[nH]c1=O [2',3'-dideoxythymidine]	> 2000	> 2000					> 2000	200	> 2000	> 2000	> 2000	> 2000	> 2000	> 2000	> 2000			activation of PBM + PWM, mean counts per minute [5, 18]: 31 counts per minute (×10^3); activation of PBM + PWM, mean counts per minute [5, 19]: 31 counts per minute (×10^3); activation of clone TM3, mean counts per minute [6, 18]: 9 counts per minute (×10^3); activation of clone TM3, mean counts per minute [6, 19]: 9 counts per minute (×10^3); concentration required to exert a protective effect ([8]; ATH8 cells): relatively high concentrations; capacity to nullify the cytopathic effect of the virus ([8]; day 10 of culture, ATH8 cells): lost on day 10 of the culture; concentration required to mediate an anti-viral effect (p24 gag expression) [13]: relatively higher concentrations; resumption of viral replication ([13]; day 10 of culture): allowed a resumption of viral replication by day 10 of culture; activation of PBM + PHA, mean counts per minute [12, 18]: 86 counts per minute (×10^3); activation of PBM + PHA, mean counts per minute [12, 19]: 77 counts per minute (×10^3)
O=c1ccn([C@H]2CC[C@@H](CO)O2)c(=O)[nH]1 [Dideoxyuridine]	> 2000	> 2000					> 2000	> 100	> 2000	> 2000	> 2000	> 2000	> 2000	> 2000	> 2000			
